Data taken from patent US11739122B2, “Glycopeptide antibiotic compounds, methods for producing the same, and uses thereof” (Academia Sinica, priority 2019, dated 2023).
Values after ≈ are worked out from the molar mass of the structure shown.

How the values were obtained:
MRSA ATCC 700787 [1] = assay: Thin-section TEM, cell wall morphology; type: cell-based, Staphylococcus aureus
Method: Thin-Section Transmission Electron Microscopy (TEM)
An overnight cultured MRSA ATCC 700787, VRE ATCC 700221 or A. baumannii ATCC 19606 was individually sub-cultured into a fresh medium. Bacteria at the exponential phase were treated with a given test compound at a concentration of 4×MIC for 1-4 hour at 37° C. and followed by wash and resuspension in PBS. Bacteria cells for the TEM analysis were prepared as follows: Cells were fixed with 2.5% glutaraldehyde for 30 minutes. After the fixation, cells were washed twice with PBS and fixed with 1% osmium tetraoxide for another 30 minutes. All the buffer was removed with distilled water. The cells were then stained with 1% uranyl acetate and dehydrated with a graded ethanol solution. Cells were embedded in resin. Finally, each sample was cut into thin slices of approximately 90 nm with a glass knife and stained with uranyl acetate. The images of bacterial morphological were recorded.
The cell wall/membrane apparently is the targets, while the extent of damage depends on what compound imposes on the strain. […] Cell wall thickening has been a common phenotype in clinical MRSA isolates, which may well be a phenotypic determinant for VRSA. The systemic cell-wall damage may account for the cell-wall biosynthesis crippled all over the cell surface in cell-wall thickening strains, thus leading cells to lysis as a result of the osmotic pressure of cytoplasm.

MRSA ATCC 700787 [2] = assay: In vivo efficacy, intraperitoneal MRSA infection; set-up: species or system mice; conditions: peritoneal fluid, 24 hours post-inoculation, single dose 20 mgkg^−1 IP
Method: In Vivo Efficacy of r6,N-Acyl-Glc Tei Analogs
Female C57BL/6 mice (6 weeks of age; about 16-19 g, 3-5 mice per group) were intraperitoneally inoculated with 300 μL of MRSA ATCC 700787 suspension (about 10^7 CFUmL^−1). For intranasal A. baumannii (ATCC 19606) inoculation, mice were anesthetized, and inoculated intranasally with about 10^7-10^8 CFUmL^−1 A. baumannii in 50 μL of PBS. Treatments were started 1 hour after the bacterial challenge. The dose administration to mice was set as follows: teicoplanin (1) or r6,C8-Tei analog (14) 20 mgkg^−1 was intraperitoneally injected to MRSA-infected mice; amikacin (15 mgkg^−1), teicoplanin (1) (30 mgkg^−1), kanamycin (30 mgkg^−1) or r1,Me2-r6,guanidino-C8 analog (24) (30 mgkg^−1) was intraperitoneally injected to AB-infected mice. To assess bacteraemia, the test animals were sacrificed to collect 1 mL of peritoneal fluid (PF) for MRSA counting or the lungs were lavaged to collect 0.6 mL bronchoalveolar lavage (BAL) fluid for A. baumannii counting.
For MRSA, mice were inoculated intraperitoneally (IP) with 0.3 mL of MRSA ATCC 700787 suspension (about 10^7 CFUmL^−1). […] For the saline treated control, bacterial count was calculated (about 7.5 log CFUmL^−1, FIG. 4A). […]

MRSA ATCC 700787 [3] = assay: Minimal bactericidal concentration (MBC); type: cell-based, Staphylococcus aureus
Method: Minimal Bactericidal Concentration (MBC) Determination
The MBC test is an extension of the MIC examination. MBC was determined by performing subcultures on antibiotic-free agar from both the well where there was no visible growth at the MIC of a tested antibiotic and from the positive control well (with inoculum but without compounds). The plates were incubated at 37° C. for 18-24 hours. The MBC was taken as the lowest concentration of the test compound that results in more than 99.9% reduction of viable bacteria. If MBC was one or two dilutions above a given MIC value (MBC/MIC ratio was less than or equal to four), the antibiotic was considered bactericidal against the test organism.

VRE ATCC 700802 (vanB) = assay: MIC, broth microdilution; type: cell-based, enterococci; conditions: VRE ATCC 700802 (vanB)
Summary of the method: (§1)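 Broth microdilution; inocula were prepared from 18–24 h agar colonies to a 0.5 McFarland standard and adjusted to about 1×10^8 CFU/mL. Plates were incubated at 37 °C for 18–24 h. The MIC was the lowest compound concentration showing no visible growth.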

VRE ATCC 700221 (vanA) = assay: MIC, broth microdilution; type: cell-based, enterococci; conditions: VRE ATCC 700221 (vanA)
Summary of the method: as §1

VRE ATCC 700425 (vanC) = assay: MIC, broth microdilution; type: cell-based, enterococci; conditions: VRE ATCC 700425 (vanC)
Summary of the method: as §1

MIC (VRE ATCC 700802 (vanB)): 0.5 µg/mL (≈ 0.336 µM) | MIC (VRE ATCC 700221 (vanA)): >16 µg/mL | MIC (VRE ATCC 700425 (vanC)): 1 µg/mL (≈ 0.673 µM)
SMILES: CCCCCCCC(=O)N[C@H]1[C@H](O[C@@H]2c3ccc(c(Cl)c3)Oc3cc4cc(c3O)Oc3ccc(cc3Cl)C[C@H]3NC(=O)[C@H](N)c5ccc(O)c(c5)Oc5cc(O)cc(c5)[C@H](NC3=O)C(=O)N[C@H]4C(=O)N[C@H]3C(=O)N[C@@H]2C(=O)N[C@H](C(=O)O)c2cc(O)cc(O)c2-c2cc3ccc2O)O[C@H](CO)[C@@H](O)[C@@H]1O [Compound 14, r6,N-octyl-Glc Tei]
cell wall morphology by TEM (MRSA ATCC 700787 [1]): cell wall damage toward full cell lysis | bacterial load reduced by (MRSA ATCC 700787 [2]): 2 log CFUmL^−1 | MBC (MRSA ATCC 700787 [3]): 0.063 µg/mL (≈ 0.0424 µM) | MBC/MIC (MRSA ATCC 700787 [3]): 4
